PMC5874719, “A π-Halogen Bond of Dibenzofuranones with the Gatekeeper Phe113 in Human Protein Kinase CK2 Leads to Potent Tight Binding Inhibitors” (Pharmaceuticals, 2018)
pIC50: −log10 of the molar value.

Experiments:
[1] = biological target: T1, CK2α (Homo sapiens, UniProt P68400); experiment: kinase selectivity profile (Reaction Biology Corp.); format: biochemical; settings: 10 µM inhibitor, 10 µM ATP, relative to control without inhibitor; read-out: residual activity
T1 construct: purchased Reaction Biology Corp
Excerpt: (§1) This demands further investigation.

[2] = biological target: T2, CK2α’ (Homo sapiens, UniProt P19784); experiment: as above; format: biochemical; settings: 10 µM inhibitor, 10 µM ATP, relative to control without inhibitor; read-out: residual activity
T2 construct: purchased Reaction Biology Corp
Excerpt: as §1

[3] = biological target: T3, surface displayed CK2α + CK2β (CK2α containing human CK2 holoenzyme) (Homo sapiens, UniProt P68400); experiment: whole-cell CK2 selectivity assay, holoenzyme surface displayed on E. coli; format: biochemical; settings: 600 µM ATP, 100 µM substrate peptide
T3 construct: surface-display (autodisplay) carrier protein; made in house; host or cells: Escherichia coli BL21 (DE3), enzyme left on the cell surface
Excerpt: We recently reported a whole cell CK2 activity assay, which can be used for testing the selectivity of compounds towards CK2α and CK2α’ [47]. It is based on the surface display of the human CK2 subunits, either α or α’ together with β on E. coli, were they are able to form a functional tetrameric holoenzymes, either ααββ or α’α’ββ, depending on which α isoform has been expressed. This technique was used to investigate whether 4a or 5 have preference to one of the two catalytic isoforms of CK2.
For this purpose, their IC50 were determined following the protocol of the recently described whole-cell CK2 selectivity assay. In summary, 78 µL of a bacterial suspension of Escherichia coli BL21 (DE3) either surface displaying CK2α + CK2β or CK2α’ + CK2β in kinase buffer (50 mM Tris/HCl, pH 8.5, 100 mM NaCl, 10 mM MgCl2 and 1 mM DTT) were supplemented with 2 µL of the test compound dissolved in DMSO and incubated at 37 °C and 400 rpm for 10 min. CK2 reactions were started by the addition of 120 µL of assay buffer (25 mM Tris/HCl, pH 7.5, 150 mM NaCl, 5 mM MgCl2, 1 mM DTT, 167 µM substrate peptide […] and 1 mM ATP) leading to a total reaction volume of 200 µL with final concentrations of 100 µM for the substrate peptide and 600 µM for ATP. […] After the samples were incubated for 120 min at 37 °C and 400 rpm, the CK2 presenting bacteria were removed by centrifugation (3850× g, 5 min, 4 °C). The obtained supernatants were transferred to the wells of a 96 well-microplate and finally supplemented with EDTA to a concentration of 12.5 mM to definitely stop the enzymatic reactions. The samples were then subjected to a Beckman Coulter pa800 plus (Krefeld, Germany) CE system and analyzed for phosphorylation of the substrate peptide. Samples containing pure DMSO served as controls for 0% inhibition and samples additionally lacking ATP served as controls for 100% inhibition. […] IC50 values were calculated from the resulting dose-response curves.
CK2α’ + CK2β (right column).
Mean values ± standard errors of
the means (SEM) are shown. […]

[4] = system: cellular CK2 in ARPE19 cells; experiment: cellular CK2 activity after treatment of cells (in vitro phosphorylation assay of cell extracts); format: cell-based, human; settings: for cellular CK2 activity reduced to: control = 100%
Description: (§2) Figure 4 Expression of CK2 in prostate cancer cell line LNCaP and non-neoplastic retinal pigment epithelial cell line ARPE19 and inhibition of intracellular activity by dibenzofurans. (A) Cells were extracted with RIPA buffer. 50 μg cell extract was separated on a 12.5% SDS polyacrylamide gel and transferred to a PVDF membrane followed by Western blotting with anti-CK2α (1A5), anti-CK2α’ (#30), anti-CK2α (6D5) and anti-GAPDH antibodies. GAPDH was used as a loading control. (B) ARPE19 or LNCaP cells were treated with DMSO as control (0 μM) or with 25 or 50 μM 4b, 4a or 5 for 24 or 48 h. Kinase activity of CK2 in the cell extracts was measured with the synthetic CK2 specific peptide substrate, […], in the presence of [[^32P]γATP. Results from at least three individual experiments are shown; the activity in the control cells was set to 100%.
(§3) ARPE19 and LNCaP cells were treated with 0, 25 or 50 µM of the different dibenzofuran derivatives 4b, 4a and 5 for 24 and 48 h before being harvested. Proteins were extracted and CK2 kinase activity was measured by an in vitro phosphorylation assay using the CK2 specific peptide substrate […] and radiolabeled [[^32P]γATP. The activity as measured was normalized to equal protein amounts. The relative CK2 activity of at least three independent experiments is given as bar graphs in Figure 4B. In ARPE19 cells CK2 activity was strongly repressed by all inhibitors. […] For 5 a weaker but dose-dependant effect was observed. 25 µM reduced the cellular CK2 activity to 80% and with 50 µM the activity was reduced to 40%. In LNCaP cells the results were essentially similar to those made in ARPE19 cells. However, the repression of activity by 4b and 4a was not as strong as in ARPE19 cells. 4b reduced the activity to 50%, 4a to 40%. The outcome using 5 was quite similar to the effects observed in ARPE19 cells: a reduction to roughly 80% when using 25 µM, which was enhanced to 40% when using 50 µM. This also indicated cell penetration of compounds 4a, 4b, and 5. A more direct evidence for intracellular inhibition of CK2 could be obtained by measuring the phosphorylation of endogenous natural substrates (biomarker analysis). […] With respect to their results and taking into consideration that the logP values of compounds 4a, 4b, and 5 as given in Table 2 are not of substantial difference, we conclude that the inhibitors were able to cross the cell membrane and exerted a similar inhibitory effect on intracellular CK2 activity in both cell lines.
(§4) ARPE19 cells (ATCC Number: CRL-2302), retinal pigment epithelia (RPE) cells, were maintained at 37 °C and 5% CO2 in Dulbecco’s modified Eagles medium (DMEM) supplemented with 2 mM L-glutamine, 1 mM gentamicin and 10% fetal calf serum (FCS) at 37 °C in an atmosphere enriched with 5% CO2. The hormone-sensitive prostate cancer cell line LNCaP (ATCC: CRL-1740, passage number 30–40) was cultured in RPMI1640 (Sigma-Aldrich Chemie GmbH, Munich, Germany) supplemented with 10% fetal bovine serum and 2 mM L-glutamine at 37 °C in an atmosphere enriched with 5% CO2. 4b, 4a and 5 were dissolved in DMSO as a 10 mM stock solution and cells were treated in the concentrations and times as indicated. Pure DMSO was applied as control. For the evaluation of cell morphology ARPE19 and LNCaP cells were analysed with bright field microscopy using a Axiovert microscope from Zeiss (Jena, Germany).
(§5) For harvesting cells—including floating cells—were scraped off the plate with a rubber policeman and sedimented by centrifugation (7 min, 4 °C, 400× g). Cells were washed with cold phosphate buffered saline (PBS) and the cell pellet was lysed with the double volume of RIPA buffer (50 mM Tris/HCl, pH 8.0, 150 mM NaCl, 0.5% sodium desoxycholate, 1% Triton X-100, 0.1% sodium dodecylsulfate) supplemented with the protease inhibitor cocktail completeTM (Roche Diagnostics GmbH, Mannheim, Germany). […]

[5] = system: cellular CK2 in LNCaP cells; experiment: as above; format: cell-based, human; settings: control = 100%
Description: as §2, §3, §4, §5

[6] = 25 or 50 µM, 24 or 48 h (not specified)

T3 sequence (P68400 whole entry): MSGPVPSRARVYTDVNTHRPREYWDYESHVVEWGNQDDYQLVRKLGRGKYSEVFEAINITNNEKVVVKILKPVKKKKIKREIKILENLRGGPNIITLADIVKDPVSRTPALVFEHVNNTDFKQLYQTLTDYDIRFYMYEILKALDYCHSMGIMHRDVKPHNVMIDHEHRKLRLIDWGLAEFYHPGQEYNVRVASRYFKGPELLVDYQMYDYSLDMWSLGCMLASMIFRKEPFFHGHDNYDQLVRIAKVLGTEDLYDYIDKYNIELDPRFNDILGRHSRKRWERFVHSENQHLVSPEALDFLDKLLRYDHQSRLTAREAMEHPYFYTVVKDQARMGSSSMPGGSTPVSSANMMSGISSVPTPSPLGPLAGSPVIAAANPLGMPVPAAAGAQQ
T3 sequence (P67870 whole entry partner): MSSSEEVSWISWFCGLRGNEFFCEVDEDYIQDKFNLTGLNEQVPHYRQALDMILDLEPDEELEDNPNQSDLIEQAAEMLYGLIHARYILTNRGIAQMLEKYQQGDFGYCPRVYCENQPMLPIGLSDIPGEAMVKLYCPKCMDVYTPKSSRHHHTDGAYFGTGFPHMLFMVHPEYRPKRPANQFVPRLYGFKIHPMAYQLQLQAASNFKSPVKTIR
T2 sequence (P19784 whole entry): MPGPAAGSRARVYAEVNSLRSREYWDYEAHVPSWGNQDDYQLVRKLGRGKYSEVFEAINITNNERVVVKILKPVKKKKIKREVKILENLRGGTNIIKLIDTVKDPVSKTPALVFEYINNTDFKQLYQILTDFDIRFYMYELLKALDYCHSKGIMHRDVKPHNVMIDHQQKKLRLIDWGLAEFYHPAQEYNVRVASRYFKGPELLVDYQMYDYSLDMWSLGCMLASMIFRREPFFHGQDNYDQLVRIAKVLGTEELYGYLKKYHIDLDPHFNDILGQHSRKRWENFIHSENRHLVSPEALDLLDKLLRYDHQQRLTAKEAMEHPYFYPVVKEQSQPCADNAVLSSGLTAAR
T1 sequence (P68400 whole entry): as the sequence (P68400 whole entry) above

## COc1ccc(N/C=C2\C(=O)CCc3c2oc2cc(Cl)c(O)c(Cl)c32)cc1 [4a, 7,9-dichloro-1,2-dihydro-8-hydroxy-4-[(4-methoxyphenylamino)methylene]dibenzo[b,d]furan-3(2H)-one]
[1]
  remaining activity at 10 µM: < 2%
[2]
  remaining activity at 10 µM: < 1%
[3]
  pIC50: 7.21
[4]; ARPE19, 25 µM for 24 h
  inhibition of cellular CK2 activity: 80%
[5]; [6]
  cellular CK2 activity reduced to: 40%

## Cc1ccc(NC=C2C(=O)CCc3c2oc2c(Cl)c(Cl)c(O)cc32)cc1 [4b, 6,7-dichloro-1,4-dihydro-8-hydroxy-4-[(4-methylphenylamino)methylene]dibenzo[b,d]furan-3(2H)-one]
[3]
  pIC50: 6.06
[4]; ARPE19, 25 or 50 µM, 24 or 48 h, independent of concentration and time
  inhibition of cellular CK2 activity: 60%
[5]; [6]
  cellular CK2 activity reduced to: 50%

## COc1ccc(/N=C/c2c(O)ccc3c2oc2cc(Cl)c(O)c(Cl)c23)cc1 [compound 5, (E)-1,3-dichloro-6-[(4-methoxyphenylimino)methyl]dibenzo[b,d]furan-2,7-diol]
[1]
  remaining activity at 10 µM: < 2%
[2]
  remaining activity at 10 µM: < 1%
[3]
  pIC50: 7.01
[4]; ARPE19, 25 µM
  cellular CK2 activity reduced to: 80%
[4]; ARPE19, 50 µM
  cellular CK2 activity reduced to: 40%
[5]; 25 µM
  cellular CK2 activity reduced to: roughly 80%
[5]; 50 µM
  cellular CK2 activity reduced to: 40%
